The results in this text go back to US7223772B1, “Pyrazolopyridine derivatives as selective cox-2 inhibitors” (SmithKline Beecham Corporation, priority 1998, dated 2007).

Assay [1] concerns the target T1, human COX-2 (Homo sapiens, UniProt P35354).
T1 construct: expressed in transfected cells; host or cells: COS cells (stably transfected)
T1 sequence (P35354 18-604): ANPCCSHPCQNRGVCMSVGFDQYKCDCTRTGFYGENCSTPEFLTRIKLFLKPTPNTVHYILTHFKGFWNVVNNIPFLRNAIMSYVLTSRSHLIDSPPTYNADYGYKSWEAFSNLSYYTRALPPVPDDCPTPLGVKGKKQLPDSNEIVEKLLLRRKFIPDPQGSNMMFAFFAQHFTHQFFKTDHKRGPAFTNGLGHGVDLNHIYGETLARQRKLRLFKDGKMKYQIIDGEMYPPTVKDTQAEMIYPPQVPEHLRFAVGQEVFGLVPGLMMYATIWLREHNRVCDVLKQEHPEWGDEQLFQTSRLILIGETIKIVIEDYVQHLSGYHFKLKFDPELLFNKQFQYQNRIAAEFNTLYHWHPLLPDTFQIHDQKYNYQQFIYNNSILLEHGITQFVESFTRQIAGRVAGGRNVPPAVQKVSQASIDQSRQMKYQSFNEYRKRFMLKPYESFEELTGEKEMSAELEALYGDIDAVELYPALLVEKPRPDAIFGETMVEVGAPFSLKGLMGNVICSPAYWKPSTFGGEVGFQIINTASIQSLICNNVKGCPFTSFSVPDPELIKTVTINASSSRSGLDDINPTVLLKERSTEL
In words: Inhibition of PGE2 release in COS cells stably transfected with human COX-2. As to conditions: COS cells transfected with human COX-2, 30 μM arachidonic acid. The assay is classed as cell-based. Here is the method: (§1) Inhibitory activity against human COX-1 and COX-2 was assessed in COS cells which had been stably transfected with cDNA for human COX-1 and human COX-2. 24 Hours prior to experiment, COS cells were transferred from the 175 cm^2 flasks in which they were grown, onto 24-well cell culture plates using the following procedure. The incubation medium (Dulbecco's modified eagles medium (DMEM) supplemented with heat-inactivated foetal calf serum (10%v/v), penicillin (100 lU/ml), streptomycin (100 μg/ml) and geneticin (600 μg/ml)) was removed from a flask of confluent cells (1 flask at confluency contains approximately 1×10^7 cells). 10 ml of phosphate buffered saline (PBS) was added to the flask to wash the cells. Having discarded the PBS, cells were then rinsed in 10 ml trypsin for 20 seconds, after which the trypsin was removed and the flask placed in an incubator (37°) for 1-2 minutes until cells became detached from the flask. The flask was then removed from the incubator and cells resuspended in 10 ml of fresh incubation medium. The contents of the flask was transferred to a 250 ml sterile container and the volume of incubation medium subsequently made up to 100 ml. 1 ml cell suspension was pipetted into each well of 4×24-well cell culture plates. The plates were then placed in an incubator (37° C., 95% air/5% CO2) overnight. If more than 1 flask of cells were required, the cells from flasks were combined before being dispensed into the 24-well plates.
(§2) Following the overnight incubation, the incubation medium was completely removed from the 24-well cell culture plates and replaced with 250 μl fresh DMEM (37° C.). The test compounds were made up to 250× the required test concentration in DMSO and were added to the wells in a volume of 1 μl. Plates were then mixed gently by swirling and then placed in an incubator for 1 hour (37° C., 95% air/5% CO2). Following the incubation period, 10 μl of arachidonic acid (750 μM) was added to each well to give a final arachidonic acid concentration of 30 μM. Plates were then incubated for a further 15 minutes, after which the incubation medium was removed from each well of the plates and stored −20° C., prior to determination of prostaglandin E2 (PGE2) levels using enzyme immunoassay. The inhibitory potency of the test compound was expressed as an IC50 value, which is defined as the concentration of the compound required to inhibit the PGE2 release from the cells by 50%. The selectivity ratio of inhibition of COX-1 versus COX-2 was calculated by comparing respective IC50 values. The following IC50 values for inhibition of COX-2 and COX-1 were obtained for compounds of the invention: […]

The target in assay [2] is T2, human COX-1 (Homo sapiens, UniProt P23219).
T2 construct: expressed in transfected cells; host or cells: COS cells (stably transfected)
In words: Inhibition of PGE2 release in COS cells stably transfected with human COX-1. It counts as cell-based. As to conditions: COS cells transfected with human COX-1, 30 μM arachidonic acid. Here is the method: as §1, §2

SMILES strings stand for the structures.

T2 sequence (P23219 24-599): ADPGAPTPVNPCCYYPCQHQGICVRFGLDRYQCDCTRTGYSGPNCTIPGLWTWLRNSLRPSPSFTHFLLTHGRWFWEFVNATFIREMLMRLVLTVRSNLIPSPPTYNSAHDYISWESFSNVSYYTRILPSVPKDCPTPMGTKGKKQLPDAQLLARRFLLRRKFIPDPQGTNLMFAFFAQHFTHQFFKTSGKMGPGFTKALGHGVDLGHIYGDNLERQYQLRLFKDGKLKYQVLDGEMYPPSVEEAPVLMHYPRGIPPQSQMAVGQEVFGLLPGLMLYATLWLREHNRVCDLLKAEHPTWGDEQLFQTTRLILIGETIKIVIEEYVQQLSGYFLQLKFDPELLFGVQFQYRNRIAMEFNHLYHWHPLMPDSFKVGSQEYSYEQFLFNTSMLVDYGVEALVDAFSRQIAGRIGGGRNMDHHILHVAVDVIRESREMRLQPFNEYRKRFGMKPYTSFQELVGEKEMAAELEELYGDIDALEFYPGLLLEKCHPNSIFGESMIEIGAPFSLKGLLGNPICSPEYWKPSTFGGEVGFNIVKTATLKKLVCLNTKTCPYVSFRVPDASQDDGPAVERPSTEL

As a reminder, the IC50 is the point on the concentration scale where inhibition reaches its midpoint. A lower IC50 goes with inhibition by little substance. Consider `CS(=O)(=O)c1ccc(-c2c(-c3ccccc3)nn3cc(C(F)(F)F)ccc23)cc1` [Example 7, 3-(4-Methanesulfonyl-phenyl)-2-phenyl-6-trifluoromethyl-pyrazolo[1,5-a]pyridine], for which the IC50 is 30 nM in assay [1] and more than 100000 nM in assay [2].
The like results for `NS(=O)(=O)c1ccc(-c2c(-c3cccc(F)c3)nn3cc(C(F)(F)F)ccc23)cc1` [Example 1(vii), 4-[2-(3-Fluoro-phenyl)-6-trifluoromethyl-pyrazolo[1,5-a]pyridin-3-yl]benzenesulfonamide] were, in that order, 34 nM and more than 100000 nM.
The like results for `CS(=O)(=O)c1ccc(-c2c(-c3cccc(F)c3)nn3cc(C(F)(F)F)ccc23)cc1` [Example 2, 2-(3-Fluoro-phenyl)-3-(4-methanesulfonyl-phenyl)-6-trifluoromethyl-pyrazolo[1,5-a]pyridine] were, in that order, 548 nM and more than 100000 nM.
For `CCOc1ccc(-c2nn3cc(C(F)(F)F)ccc3c2-c2ccc(S(N)(=O)=O)cc2)cc1` [Example 3, 4-[2-(4-Ethoxy-phenyl)-6-trifluoromethyl-pyrazolo[1,5-a]pyridin-3-yl]benzenesulfonamide], in that order: 34 nM and 32200 nM.
Regarding `CS(=O)(=O)c1ccc(-c2c(-c3ccc(F)cc3)nn3cc(C(F)(F)F)ccc23)cc1` [Example 5, 2-(4-Fluoro-phenyl)-3-(4-methanesulfonyl-phenyl)-6-trifluoromethyl-pyrazolo[1,5-a]pyridine], the values for the IC50 in assay [1] and in assay [2] were 26 nM and more than 100000 nM, respectively.
Turning to `NS(=O)(=O)c1ccc(-c2c(-c3ccccc3)nn3cc(C(F)(F)F)ccc23)cc1` [Example 6, 4-(2-Phenyl-6-trifluoromethyl-pyrazolo[1,5-a]pyridin-3-yl)-benzenesulfonamide], the IC50 was 31 nM in assay [1] and 26300 nM in assay [2].
In the case of `NS(=O)(=O)c1ccc(-c2c(-c3ccc(F)cc3)nn3cc(C(F)(F)F)ccc23)cc1` [Example 4, 4-[2-(4-Fluoro-phenyl)-6-trifluoromethyl-pyrazolo[1,5-a]pyridin-3-yl]benzenesulfonamide], the IC50 in assay [1] is 34 nM; in assay [2], more than 100000 nM.
